The values that follow come from patent US7632833B2, “Mitotic kinesin inhibitors” (Merck & Co., Inc., priority 2004, dated 2009).

As a reminder, the IC50 is the point on the concentration scale where inhibition reaches its midpoint.

The first test addresses T1, human poly-histidine tagged KSP motor domain (KSP(367H)) (Homo sapiens, UniProt P52732).
T1 construct: were used to amplify the motor domain and the neck linker region; made in house; host or cells: E. coli BL21 (DE3), vector pRSETa
T1 sequence (P52732 18-359 limits assumed): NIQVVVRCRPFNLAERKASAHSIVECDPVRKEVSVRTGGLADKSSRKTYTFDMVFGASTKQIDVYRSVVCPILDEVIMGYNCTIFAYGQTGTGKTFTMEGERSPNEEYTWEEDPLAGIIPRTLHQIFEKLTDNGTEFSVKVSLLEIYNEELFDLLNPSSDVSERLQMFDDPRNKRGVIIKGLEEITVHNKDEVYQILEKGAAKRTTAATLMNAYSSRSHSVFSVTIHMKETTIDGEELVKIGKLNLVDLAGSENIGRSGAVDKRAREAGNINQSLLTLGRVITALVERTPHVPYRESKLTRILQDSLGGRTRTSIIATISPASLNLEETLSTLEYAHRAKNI
The experiment in a line: Kinesin ATPase In Vitro Assay. The class given is biochemical.
Conditions: not given
Here is the method: I. Kinesin ATPase In Vitro Assay
The N-terminal primer 5′-[…] (SEQ. ID. NO.: 1) and the C-terminal primer 5′-[…] […] (SEQ. ID. NO.: 2)
were used to amplify the motor domain and the neck linker region. The PCR products were digested with AseI and XhoI, ligated into the NdeI/XhoI digestion product of pRSETa (Invitrogen) and transformed into E. coli BL21 (DE3).
Cells were grown at 37° C. to an OD600 of 0.5. After cooling the culture to room temperature expression of KSP was induced with 100 μM IPTG and incubation was continued overnight. Cells were pelleted by centrifugation and washed once with ice-cold PBS. Pellets were flash-frozen and stored −80° C.
Protein Purification: Cell pellets were thawed on ice and resuspended in lysis buffer (50 mM K-HEPES, pH 8.0, 250 mM KCl, 0.1% Tween, 10 mM imidazole, 0.5 mM Mg-ATP, 1 mM PMSF, 2 mM benzimidine, 1× complete protease inhibitor cocktail (Roche)). Cell suspensions were incubated with 1 mg/ml lysozyme and 5 mM β-mercaptoethanol on ice for 10 minutes, followed by sonication (3×30 sec). All subsequent procedures were performed at 4° C. Lysates were centrifuged at 40,000×g for 40 minutes. Supernatants were diluted and loaded onto an SP Sepharose column (Pharmacia, 5 ml cartridge) in buffer A (50 mM K-HEPES, pH 6.8, 1 mM MgCl2, 1 mM EGTA, 10 μM Mg-ATP, 1 mM DTT) and eluted with a 0 to 750 mM KCl gradient in buffer A. Fractions containing KSP were pooled and incubated with Ni-NTA resin (Qiagen) for one hour. The resin was washed three times with buffer B (Lysis buffer minus PMSF and protease inhibitor cocktail), followed by three 15-minute incubations and washes with buffer B. Finally, the resin was incubated and washed for 15 minutes three times with buffer C (same as buffer B except for pH 6.0) and poured into a column. KSP was eluted with elution buffer (identical to buffer B except for 150 mM KCl and 250 mM imidazole). KSP-containing fractions were pooled, made 10% in sucrose, and stored at −80° C.
Microtubules are prepared from tubulin isolated from bovine brain. Purified tubulin (>97% MAP-free) at 1 mg/ml is polymerized at 37° C. in the presence of 10 μM paclitaxel, 1 mM DTT, 1 mM GTP in BRB80 buffer (80 mM K-PIPES, 1 mM EGTA, 1 mM MgCl2 at pH 6.8). The resulting microtubules are separated from non-polymerized tubulin by ultracentrifugation and removal of the supernatant. The pellet, containing the microtubules, is gently resuspended in 10 μM paclitaxel, 1 mM DTT, 50 μg/ml ampicillin, and 5 μg/ml chloramphenicol in BRB80.
The kinesin motor domain is incubated with microtubules, 1 mM ATP (1:1 MgCl2: Na-ATP), and compound at 23° C. in buffer containing 80 mM K-HEPES (pH 7.0), […], 1 mM DTT, 1 mM MgCl2, and 50 mM KCl. The reaction is terminated by a 2-10 fold dilution with a final buffer composition of 80 mM HEPES and 50 mM EDTA. […] The reaction is incubated for 10 minutes at 23° C., and the absorbance of the phospho-molybdate complex is measured at 540 nm.
As to `CC(=O)C1=NN2c3cc(F)ccc3OCC2C1(CCCN(C)C)c1ccccc1` [Compound 4-13, (3R,4R) 1-{3-[3-(dimethylamino)propyl]-8-fluoro-3-phenyl-3a,4-dihydro-3H-pyrazolo[5,1-c][1,4]benzoxazin-2-yl}ethanone], the IC50 is at most 30 µM. Regarding `CC(=O)C1=NN2c3cc(C)ccc3OCC2C1(CCCN(C)C)c1ccccc1` [Compound 4-18, (3R,4R) 1-{3-[3-(dimethylamino)propyl]-8-methyl-3-phenyl-3a,4-dihydro-3H-pyrazolo[5,1-c][1,4]benzoxazin-2-yl}ethanone], the concentration for half-maximal inhibition (IC50) is at most 30 µM.

With `CC(=O)C1=NN2c3cc(F)ccc3OC[C@H]2[C@@]1(CCCO)c1ccccc1` [Compound 4-12, (3R,4R) 1-[8-fluoro-3-(3-hydroxypropyl)-3-phenyl-3a,4-dihydro-3H-pyrazolo[5,1-c][1,4]benzoxazin-2-yl]ethanone], the IC50 is at most 30 µM.

Regarding `CC(=O)C1=NN2c3cc(F)ccc3OC[C@H]2[C@@]1(CCCN1CCN(C(C)=O)CC1)c1ccccc1` [Compound 5-10, 1-{(3R,4R)-3-[3-(4-acetylpiperazin-1-yl)propyl]-8-fluoro-3-phenyl-3a,4-dihydro-3H-pyrazolo[5,1-c][1,4]benzoxazin-2-yl}ethanone], the IC50 is at most 30 µM. The same measure, in the same setting: with `CC(=O)C1=NN2c3cc(F)ccc3OCC2C1(CCCN1CCNC(=O)CC1)c1ccccc1` [Compound 4-21, 1-{3-[(3R,4R)-2-acetyl-8-fluoro-3-phenyl-3a,4-dihydro-3H-pyrazolo[5,1-c][1,4]benzoxazin-3-yl]propyl}-1,4-diazepan-5-one] the figure was at most 30 µM. Same read-out and setting: the same measure for `CC(=O)C1=NN2c3cc(F)ccc3OCC2C1(CCCN1CCNCC1)c1ccccc1` [Compound 4-23, (3R,4R) 1-[8-fluoro-3-phenyl-3-(3-piperazin-1-ylpropyl)-3a,4-dihydro-3H-pyrazolo[5,1-c][1,4]benzoxazin-2-yl]ethanone]: at most 30 µM.

The same test, now with this note: (3R,4R) enantiomeric form tested; kinesin motor domain with microtubules, 1 mM ATP, 23° C., free phosphate by quinaldine red/ammonium molybdate; read-out: IC50.
For `COC(=O)C(=O)N1CCN(CCC[C@]2(c3ccccc3)C(C(C)=O)=NN3c4cc(F)ccc4OC[C@H]32)CC1` [Compound 4-31, methyl (4-{3-[(3R,4R)-2-acetyl-8-fluoro-3-phenyl-3a,4-dihydro-3H-pyrazolo[5,1-c][1,4]benzoxazin-3-yl]propyl}piperazin-1-yl)(oxo)acetate], the IC50 is at most 30 µM. Turning to `COC(=O)CC(=O)N1CCN(CCC[C@]2(c3ccccc3)C(C(C)=O)=NN3c4cc(F)ccc4OC[C@H]32)CC1` [Compound 4-32, methyl 3-(4-{3-[(3R,4R)-2-acetyl-8-fluoro-3-phenyl-3a,4-dihydro-3H-pyrazolo[5,1-c][1,4]benzoxazin-3-yl]propyl}piperazin-1-yl)-3-oxopropanoate], the IC50 is at most 30 µM. In the case of `CC(=O)C1=NN2c3cc(F)ccc3OC[C@H]2[C@@]1(CCCN1CCN(C(=O)c2ccco2)CC1)c1ccccc1` [Compound 4-33, 1-((3R,4R)-8-fluoro-3-{3-[4-(2-furoyl)piperazin-1-yl]propyl}-3-phenyl-3a,4-dihydro-3H-pyrazolo[5,1-c][1,4]benzoxazin-2-yl)ethanone], the IC50 is at most 30 µM. Turning to `CC(=O)C1=NN2c3cc(F)ccc3OC[C@H]2[C@@]1(CCCN1CCN(C)C(=O)C1)c1ccccc1` [Compound 4-37, 4-{3-[(3R,4R)-2-acetyl-8-fluoro-3-phenyl-3a,4-dihydro-3H-pyrazolo[5,1-c][1,4]benzoxazin-3-yl]propyl}-1-methylpiperazin-2-one], the half-maximal inhibitory concentration (IC50) is at most 30 µM. With `CC(=O)NCCNCCC[C@]1(c2ccccc2)C(C(C)=O)=NN2c3cc(F)ccc3OC[C@H]21` [Compound 4-40, N-[2-({3-[(3R,4R)-2-acetyl-8-fluoro-3-phenyl-3a,4-dihydro-3H-pyrazolo[5,1-c][1,4]benzoxazin-3-yl]propyl}amino)ethyl]acetamide], the 50% inhibitory concentration (IC50) was at most 30 µM. As for `CC(=O)C1=NN2c3cc(F)ccc3OC[C@H]2[C@@]1(CCCN1CCN(C(=O)c2cc(C)on2)CC1)c1ccccc1` [Compound 4-35, 1-[(3R,4R)-8-fluoro-3-(3-{4-[(5-methylisoxazol-3-yl)carbonyl]piperazin-1-yl}propyl)-3-phenyl-3a,4-dihydro-3H-pyrazolo[5,1-c][1,4]benzoxazin-2-yl]ethanone], the half-inhibitory concentration (IC50) is at most 30 µM.

As to `CC(=O)C1=NN2c3cc(F)ccc3OC[C@H]2[C@@]1(CCCN1CCN(C(=O)OC(C)(C)C)CC1)c1ccccc1` [Compound 4-24, tert-butyl 4-{3-[(3R,4R)-2-acetyl-8-fluoro-3-phenyl-3a,4-dihydro-3H-pyrazolo[5,1-c][1,4]benzoxazin-3-yl]propyl}piperazine-1-carboxylate], the IC50 is at most 30 µM. As to `CC(=O)C1=NN2c3cc(F)ccc3OC[C@H]2[C@@]1(CCCN1CCNC(=O)C1)c1ccccc1` [Compound 4-36, 4-{3-[(3R,4R)-2-acetyl-8-fluoro-3-phenyl-3a,4-dihydro-3H-pyrazolo[5,1-c][1,4]benzoxazin-3-yl]propyl}piperazin-2-one], the concentration for half-maximal inhibition (IC50) is at most 30 µM. `CC(=O)C1=NN2c3cc(F)ccc3OC[C@H]2[C@@]1(CCCN1CCN(C(=O)c2ccno2)CC1)c1ccccc1` [Compound 4-34, 1-((3R,4R)-8-fluoro-3-{3-[4-(isoxazol-5-ylcarbonyl)piperazin-1-yl]propyl}-3-phenyl-3a,4-dihydro-3H-pyrazolo[5,1-c][1,4]benzoxazin-2-yl)ethanone]: the half-inhibitory concentration (IC50) is at most 30 µM. The same measure, in the same setting: the same measure for `CC(=O)C1=NN2c3cc(F)ccc3OCC2[C@@]1(CCCN1CC2C[C@@H]1CO2)c1ccccc1` (mixture of isomers) [Compound 4-15, (3R,4R) 1-{8-fluoro-3-[3-(2-oxa-5-azabicyclo[2.2.1]hept-5-yl)propyl]-3-phenyl-3a,4-dihydro-3H-pyrazolo[5,1-c][1,4]benzoxazin-2-yl}ethanone]: at most 30 µM; for `CC(=O)C1=NN2c3cc(C)ccc3OCC2[C@@]1(CCCN1CC2C[C@@H]1CO2)c1ccccc1` (mixture of isomers) [Compound 4-20, (3R,4R) 1-{8-methyl-3-[3-(2-oxa-5-azabicyclo[2.2.1]hept-5-yl)propyl]-3-phenyl-3a,4-dihydro-3H-pyrazolo[5,1-c][1,4]benzoxazin-2-yl}ethanone]: at most 30 µM; for `COCC(=O)N1CCN(CCC[C@]2(c3ccccc3)C(C(C)=O)=NN3c4cc(F)ccc4OC[C@H]32)CC1` [Compound 4-26, 1-((3R,4R)-8-fluoro-3-{3-[4-(methoxyacetyl)piperazin-1-yl]propyl}-3-phenyl-3a,4-dihydro-3H-pyrazolo[5,1-c][1,4]benzoxazin-2-yl)ethanone]: at most 30 µM. In the case of `CC(=O)C1=NN2c3cc(F)ccc3OC[C@H]2[C@@]1(CCCN1CCN(C(N)=O)CC1)c1ccccc1` [Compound 4-27, 4-{3-[(3R,4R)-2-acetyl-8-fluoro-3-phenyl-3a,4-dihydro-3H-pyrazolo[5,1-c][1,4]benzoxazin-3-yl]propyl}piperazine-1-carboxamide], the IC50 was at most 30 µM. Regarding `CNC(=O)N1CCN(CCC[C@]2(c3ccccc3)C(C(C)=O)=NN3c4cc(F)ccc4OC[C@H]32)CC1` [Compound 4-28, 4-{3-[(3R,4R)-2-acetyl-8-fluoro-3-phenyl-3a,4-dihydro-3H-pyrazolo[5,1-c][1,4]benzoxazin-3-yl]propyl}-N-methylpiperazine-1-carboxamide], the IC50 is at most 30 µM.
